Assay results: PubChem BioAssay (NCI)
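Values below derive from 48-hour exposures of cells grown in 96-well plates, with endpoints linearly interpolated between the two concentrations bracketing the appropriate inhibition level. The concentration for 50% growth inhibition is given as GI50. The concentration for full growth arrest is given as TGI.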

Columns and labels:
Experiment in all cases: inhibition of tumour cell growth, NCI panel, 48 h
[1] = system: T-47D breast
[2] = system: SK-MEL-2 melanoma
[3] = system: MCF7 breast
[4] = system: SF-295 CNS
[5] = system: SW-620 colon
[6] = system: SK-OV-3 ovarian
[7] = system: UACC-257 melanoma
[8] = system: ACHN renal
[9] = system: BT-549 breast
[10] = system: MALME-3M melanoma

CC(C)C(C/C=C1\CC(CO)(COC(=O)C2CCCCC2)OC1=O)C(C)C (stereo not drawn)
TGI [1]: 48 µM | TGI [2]: > 100 µM | TGI [3]: 39 µM | TGI [4]: 33.2 µM | TGI [5]: 40.5 µM | TGI [6]: > 100 µM | TGI [7]: 84.1 µM | TGI [8]: 32.3 µM | TGI [9]: 47.2 µM | TGI [10]: 35.5 µM

O=C(Nn1c(-c2ccccc2)nc2ccccc2c1=O)c1ccccc1O
TGI [1]: > 100 µM | TGI [3]: > 100 µM | TGI [4]: > 100 µM | TGI [5]: > 100 µM | TGI [6]: > 100 µM | TGI [7]: > 100 µM | TGI [8]: > 100 µM | TGI [9]: > 100 µM | TGI [10]: > 100 µM

Cc1nnc2n1N=C(c1ccc(Cl)cc1Cl)/C(=C/c1ccc(-c3ccc([N+](=O)[O-])cc3Cl)o1)S2
GI50 [1]: 83 µM | TGI [1]: > 100 µM | GI50 [2]: 32.8 µM | TGI [2]: > 100 µM | GI50 [3]: 2.06 µM | TGI [3]: 14.3 µM | GI50 [4]: 43.5 µM | TGI [4]: > 100 µM | GI50 [5]: 13.3 µM | TGI [5]: 33 µM | GI50 [6]: > 100 µM | TGI [6]: > 100 µM | GI50 [7]: 18.1 µM | TGI [7]: 41.2 µM | GI50 [8]: 18.5 µM | TGI [8]: 34.6 µM | GI50 [9]: 22.1 µM | TGI [9]: 43.3 µM | GI50 [10]: 21.2 µM | TGI [10]: 56.1 µM

COc1cc(C2c3cc4c(cc3C3OC[C@@H]2C3CO)OCO4)cc(OC)c1OC (stereo partly drawn)
TGI [1]: > 100 µM | TGI [2]: > 100 µM | TGI [3]: > 100 µM | TGI [4]: > 100 µM | TGI [5]: > 100 µM | TGI [6]: > 100 µM | TGI [7]: 76.5 µM | TGI [8]: > 100 µM | TGI [9]: 97.6 µM | TGI [10]: > 100 µM

C/C(=N\NC(=S)N(C)C)c1cccnn1
TGI [1]: > 100 µM | TGI [2]: > 100 µM | TGI [3]: > 45 µM | TGI [4]: > 100 µM | TGI [5]: > 100 µM | TGI [6]: > 100 µM | TGI [7]: 2.98 µM | TGI [8]: 0.474 µM | TGI [9]: > 100 µM | TGI [10]: > 70.5 µM

NN=C(CC(O)(C(F)(F)Cl)C(F)(F)Cl)CC(O)(C(F)(F)Cl)C(F)(F)Cl
TGI [1]: > 10 µM | TGI [2]: > 10 µM | TGI [3]: > 10 µM | TGI [4]: > 10 µM | TGI [5]: > 10 µM | TGI [6]: > 10 µM | TGI [7]: > 10 µM | TGI [8]: > 10 µM | TGI [9]: > 10 µM | TGI [10]: > 10 µM

CN(C)CCn1c(CO)nc2c1c(=O)n(C)c(=O)n2C
TGI [1]: > 100 µM | TGI [2]: > 100 µM | TGI [3]: > 100 µM | TGI [4]: > 100 µM | TGI [5]: > 100 µM | TGI [6]: > 100 µM | TGI [7]: > 100 µM | TGI [8]: > 100 µM | TGI [9]: > 100 µM | TGI [10]: > 100 µM

NNC(=O)C1(NC(=O)c2ccccc2)C(c2ccccc2)C(c2ccccc2)=NN1c1ccccc1 (stereo not drawn)
TGI [1]: > 100 µM | TGI [2]: > 100 µM | TGI [3]: > 100 µM | TGI [4]: > 100 µM | TGI [5]: > 100 µM | TGI [6]: > 100 µM | TGI [7]: > 100 µM | TGI [8]: > 100 µM | TGI [9]: > 100 µM | TGI [10]: > 100 µM

CN1CC2=C(NC(=S)NC2c2ccccc2)/C(=C/c2ccccc2)C1 (stereo not drawn)
TGI [1]: > 100 µM | TGI [2]: > 100 µM | TGI [3]: > 100 µM | TGI [4]: > 100 µM | TGI [5]: > 100 µM | TGI [6]: 61.8 µM | TGI [7]: > 100 µM | TGI [8]: > 100 µM | TGI [9]: > 100 µM | TGI [10]: > 100 µM

CC(C)(C)[Si](C)(C)OCc1cccc(OCCOc2cccc(CO[Si](C)(C)C(C)(C)C)c2[N+](=O)[O-])c1[N+](=O)[O-]
TGI [1]: > 100 µM | TGI [2]: > 100 µM | TGI [3]: > 100 µM | TGI [4]: > 100 µM | TGI [5]: > 100 µM | TGI [6]: > 100 µM | TGI [7]: > 100 µM | TGI [8]: > 100 µM | TGI [9]: > 100 µM | TGI [10]: > 100 µM

CC(=O)NC1C(OCc2ccccc2)OC(CO)C(O)C1OC(C)C(=O)NC(C(=O)NC(CCC(=O)NCCCCNc1c2ccccc2nc2cccc([N+](=O)[O-])c12)C(N)=O)C(C)C (stereo not drawn)
TGI [1]: > 38.2 µM | TGI [2]: 12.5 µM | TGI [3]: > 44 µM | TGI [4]: 43.1 µM | TGI [5]: > 32.9 µM | TGI [6]: > 63.3 µM | TGI [7]: 15.9 µM | TGI [8]: 9.18 µM | TGI [9]: 20.8 µM | TGI [10]: 4.08 µM

CN1C(=O)C(O)C[C@@H]1c1ccccc1 (stereo partly drawn)
TGI [1]: > 100 µM | TGI [2]: > 100 µM | TGI [3]: > 100 µM | TGI [4]: > 100 µM | TGI [5]: > 100 µM | TGI [6]: > 100 µM | TGI [7]: > 100 µM | TGI [8]: > 100 µM | TGI [9]: > 100 µM | TGI [10]: > 100 µM

COc1ccc2cc(CNCCCCCCNCc3ccc4cc(OC)ccc4c3)ccc2c1
TGI [1]: 2.07 µM | TGI [2]: 2.64 µM | TGI [3]: 1.2 µM | TGI [4]: 0.961 µM | TGI [5]: 0.351 µM | TGI [6]: 3.24 µM | TGI [7]: 3.34 µM | TGI [8]: 2.92 µM | TGI [9]: 3.14 µM | TGI [10]: 2.62 µM

COc1ccc2[nH]c(O)c(/C=c3/cc4c(c(-c5ccc(F)c(OC)c5)n3)=Nc3ccccc3-4)c2c1
GI50 [1]: 1.85 µM | TGI [1]: 3.78 µM | GI50 [2]: 2.23 µM | TGI [2]: 5.41 µM | GI50 [3]: 1.76 µM | TGI [3]: 4.44 µM | GI50 [4]: 2.26 µM | TGI [4]: 6.51 µM | GI50 [5]: 1.77 µM | TGI [5]: 3.8 µM | GI50 [6]: 11.3 µM | TGI [6]: 26.2 µM | GI50 [7]: 2.81 µM | TGI [7]: 8.86 µM | GI50 [8]: 3.01 µM | TGI [8]: 9.86 µM | GI50 [9]: 1.89 µM | TGI [9]: 3.91 µM | GI50 [10]: 2.03 µM | TGI [10]: 3.92 µM

CCCCCCCCCCCCCCCCCCNc1nc(=O)n(C2CC(O)C(COP(=O)(O)O)O2)cc1F (stereo not drawn)
TGI [1]: > 100 µM | TGI [2]: > 100 µM | TGI [3]: > 100 µM | TGI [4]: > 100 µM | TGI [5]: > 100 µM | TGI [6]: > 100 µM | TGI [7]: > 100 µM | TGI [8]: > 100 µM | TGI [9]: > 100 µM | TGI [10]: > 100 µM

CCOP(=O)(OCC)/C(=C/c1cccs1)CC(C)=O
TGI [1]: > 100 µM | TGI [2]: > 100 µM | TGI [3]: > 100 µM | TGI [4]: > 100 µM | TGI [5]: > 100 µM | TGI [6]: > 100 µM | TGI [7]: > 100 µM | TGI [8]: > 100 µM | TGI [9]: > 100 µM | TGI [10]: > 100 µM

Cc1ccc(S(=O)(=O)Nc2nnc(S(N)(=O)=O)s2)cc1
TGI [1]: > 100 µM | TGI [2]: > 100 µM | TGI [3]: > 100 µM | TGI [4]: > 100 µM | TGI [5]: > 100 µM | TGI [6]: > 100 µM | TGI [7]: > 100 µM | TGI [8]: > 100 µM | TGI [9]: > 100 µM | TGI [10]: > 100 µM

O=C(c1cccs1)N1CCN(C(=O)c2cccs2)C1=S
TGI [1]: 23.8 µM | TGI [2]: 28.3 µM | TGI [3]: 14.8 µM | TGI [4]: 30.5 µM | TGI [5]: 24.6 µM | TGI [6]: 28.9 µM | TGI [7]: 22.9 µM | TGI [8]: 20.5 µM | TGI [9]: 14.9 µM | TGI [10]: 28.7 µM

CCN(CC)C(=S)SS(=O)(=O)c1cccc(N)c1
TGI [1]: > 100 µM | TGI [2]: > 100 µM | TGI [3]: > 100 µM | TGI [4]: > 100 µM | TGI [5]: > 100 µM | TGI [6]: > 100 µM | TGI [7]: > 100 µM | TGI [8]: > 100 µM | TGI [9]: > 100 µM | TGI [10]: > 100 µM

NCC(O)CSCc1ccc(Cl)cc1 (stereo not drawn)
TGI [1]: > 100 µM | TGI [3]: > 100 µM | TGI [4]: > 100 µM | TGI [5]: > 100 µM | TGI [6]: > 100 µM | TGI [7]: > 100 µM | TGI [8]: > 100 µM | TGI [9]: > 100 µM | TGI [10]: > 100 µM
